Active and inactive are the calls of the source. No cut-off for these calls is given here.

The subject of data set [1] is HepG2. As to the kind of experiment: Anticoagulant activity in human HepG2 cells assessed as accumulation of des-gamma carboxyprothrombin at 10 uM after 24 hrs by ELISA relative to warfarin. The class given is functional. For orientation: ELISA stands for enzyme-linked immunosorbent assay.
Data set [2] relates to HepG2. As to the kind of experiment: Anticoagulant activity in human HepG2 cells assessed as accumulation of des-gamma carboxyprothrombin at 30 uM after 24 hrs by ELISA relative to warfarin. The class given is functional.
In data set [3] the test system is HepG2. As to the kind of experiment: Anticoagulant activity in human HepG2 cells assessed as accumulation of des-gamma carboxyprothrombin at 30 uM after 24 hrs by ELISA. The class given is functional, cell-based.
Data set [4] deals with Mus musculus. As to the kind of experiment: Ex vivo anticoagulant activity in albino mouse assessed as prothrombin time at 150 mg/kg, po administered daily for 3 successive days measured after 24 hrs of last dose. The class given is functional.
The subject of data set [5] is Mus musculus. In words: Ex vivo anticoagulant activity in albino mouse assessed as blood clotting time at 150 mg/kg, po administered daily for 3 successive days measured after 24 hrs of last dose. The data set is classed as functional.
Data set [6] has as its system HepG2. In words: Anticoagulant activity in human HepG2 cells assessed as accumulation of des-gamma carboxyprothrombin at 3.3 uM after 24 hrs by ELISA. The data set is classed as functional, cell-based.
Data set [7] in a line: Toxicity in po dosed albino mouse assessed as mortality administered daily for 3 successive days. The data set is classed as organism-based. The following applies: in vivo.
In data set [8] the test system is HepG2. In words: Anticoagulant activity in human HepG2 cells assessed as accumulation of des-gamma carboxyprothrombin at 1.1 uM after 24 hrs by ELISA relative to warfarin. The class given is functional, cell-based.
In data set [9] the test system is HepG2. As to the kind of experiment: Anticoagulant activity in human HepG2 cells assessed as accumulation of des-gamma carboxyprothrombin at 3.33 uM after 24 hrs by ELISA relative to warfarin. The class given is functional.
The subject of data set [10] is HepG2. As to the kind of experiment: Anticoagulant activity in human HepG2 cells assessed as accumulation of des-gamma carboxyprothrombin after 24 hrs by ELISA. The data set is classed as functional, cell-based.

Regarding `N#Cc1c(-c2ccco2)cc(-c2c(O)c3ccccc3oc2=O)nc1N`, the results for the Activity in data set [1] and in data set [2] were 7.4% and 10%, respectively. In [3], the outcome was Active.

With `COc1cc(C2CC(c3c(O)c4ccccc4oc3=O)=NC(S)=N2)cc(OC)c1OC` (stereo not given), the Activity in [1] was determined as 5.2%; in [2], 13%. For the same molecule, the Time was 0.173 min in data set [4] and 15.83 s in [5]. In addition, the result in [3] was Active.

As to `COc1cc(C2CC(c3c(O)c4ccccc4oc3=O)=NN2C(=S)Nc2ccccc2)cc(OC)c1OC` (stereo not given), in data set [6], the result was inactive.

As for `O=c1oc2ccccc2c(O)c1C1=NNC(c2cccnc2)C1` (stereo not given), the Time was 0.53 min in data set [4] and 17.67 s in data set [5]. In data set [3], the outcome was inactive.

For the molecule `N#Cc1c(-c2ccco2)cc(-c2c(O)c3ccccc3oc2=O)[nH]c1=O`, the Activity in [1] turned out to be 10%; in [2], 8.8%.

For the molecule `COc1cc(C2CC(c3c(O)c4ccccc4oc3=O)=NN2)cc(OC)c1OC` (stereo not given), the outcome in data set [3] was inactive.

`COc1cc(-c2cc(-c3c(O)c4ccccc4oc3=O)[nH]c(=O)c2C#N)cc(OC)c1OC`: the Time in [4] was determined as 0.192 min; in data set [5], 15.67 s. The outcome in [3] was inactive.

Regarding `COc1cc(C2CC(c3c(O)c4ccccc4oc3=O)=NN2c2ccccc2)cc(OC)c1OC` (stereo not given), in data set [6], the outcome was inactive.

Turning to `NC(=S)N1N=C(c2c(O)c3ccccc3oc2=O)CC1c1cccnc1` (stereo not given), the Activity was found to be 9.1% in data set [1] and 11.2% in data set [2]. Moreover, the Time in [4] is listed as 4.017 min; in data set [5], 16.67 s. Besides, the outcome in data set [3] was Active.

In general, LD50 refers to the dose at which mortality reaches 50%. Take `O=c1oc2ccccc2c(O)c1C1=NN(c2ccccc2)C(c2cccnc2)C1` (stereo not given): the LD50 at 3 days in data set [7] stood at 1790 mg/kg. In addition, the figures for the Activity in data set [1] and in [2] were 8.4% and 8.7%, respectively. Besides, the figures for the Time in data set [4] and in [5] were 0.827 min and 22.5 s, respectively.

On to `CC(=O)N1N=C(c2c(O)c3ccccc3oc2=O)CC1c1cccnc1` (stereo not given), for which the Time is 3.373 min in data set [4] and 20.83 s in data set [5]. The outcome in [8] was inactive. The Activity in data set [9] amounted to 11.45%.

With `COc1ccc(C2CC(c3c(O)c4ccccc4oc3=O)=NN2C(=S)Nc2ccccc2)cc1` (stereo not given), in data set [3], the outcome was inactive.

Take `COc1cc(-c2cc(-c3c(O)c4ccccc4oc3=O)nc(N)c2C#N)cc(OC)c1OC`: the Time in data set [4] is listed as 0.193 min; in data set [5], 9.5 s.

`O=c1oc2ccccc2c(O)c1C1=NN(C(=S)Nc2ccccc2)C(c2cccnc2)C1` (stereo not given): the values for the Activity in data set [1] and in data set [2] were 19.3% and 19.4%, respectively. Also, the figures for the Time in [4] and in data set [5] were 3.505 min and 12.17 s, respectively. The outcome in data set [3] was Active.

Regarding `CC(=O)CC(c1ccccc1)c1c(O)c2ccccc2oc1=O` (stereo not given) [WARFARIN], the LD50 at 3 days in data set [7] came to 760 mg/kg. Also, the Time turned out to be 4.445 min in [4] and 18.17 s in data set [5]. In addition, the Activity result in data set [10] is “Dose-dependent effect”.

Regarding `N#Cc1c(-c2cccnc2)cc(-c2c(O)c3ccccc3oc2=O)[nH]c1=O`, the Activity in [1] was 10%. For the same molecule, in data set [9], the outcome was inactive.

For `COc1ccc(C2CC(c3c(O)c4ccccc4oc3=O)=NN2C(N)=S)cc1` (stereo not given), the results for the Activity in [1] and in data set [2] were 13.7% and 18.1%, respectively. Also, the outcome in data set [3] was Active.

Take `COc1ccc(C2CC(c3c(O)c4ccccc4oc3=O)=NN2)cc1` (stereo not given): the Activity in [1] came to 17.76%; in data set [2], 17.3%. For the same molecule, the result in [3] was Active.

Take `O=c1oc2ccccc2c(O)c1C1=NC(S)=NC(c2cccnc2)C1` (stereo not given): the result in [1] was inactive. Moreover, the Activity in data set [2] is on record as 8%.

Values taken from ChEMBL document CHEMBL1157811, “Synthesis, anticoagulant and PIVKA-II induced by new 4-hydroxycoumarin derivatives” (Bioorg Med Chem, 2010).
